Data taken from patent publication US20240391862A1, “(1,4,5-TRISUBSTITUTED-1H-PYRAZOL-3-YL)OXY-2-ALKOXY ALKYL ACIDS AND THEIR DERIVATIVES, THEIR SALTS AND THEIR USE AS HERBICIDAL AGENTS” (Bayer AKtiengesellschaft, priority 2021, published 2024).

What was measured:
various unwanted plants [1] = assay: Pre-emergence effect against various unwanted plants (PE): comparative test of I-01 with compounds from WO2020/245044 (Tables 40a, 40b) and summary statements; assay type: in vivo; settings: comparative test
Description: Seeds of monocotyledonous and dicotyledonous weed plants and crop plants are placed in plastic or organic planting pots and covered with soil. The compounds of the invention, formulated in the form of wettable powders (WP) or as emulsion concentrates (EC), are then applied to the surface of the covering soil as aqueous suspension or emulsion with addition of 0.5% additive at a water application rate equivalent to 600 l/ha. After the treatment, the pots are placed in a greenhouse and kept under good growth conditions for the trial plants. After about 3 weeks, the effect of the preparations is scored visually in comparison with untreated controls as percentages. For example, 100% activity=the plants have died, 0% activity=like control plants. Tables 40a and 40b below show the effects of the inventive compound (I-01) with structurally similar compounds (from WO2020/245044) on various harmful plants at an application rate corresponding to 320 g/ha or less, which have been obtained by the trial procedure specified hereinafter. The inventive compound (I-01) differs here by variance of a significant structural feature from the structurally similar compound with regard to the R^2 radical. Seeds of monocotyledonous and dicotyledonous weed plants and crop plants are placed in plastic or organic planting pots and covered with soil. The compounds of the invention, formulated in the form of wettable powders (WP) or as emulsion concentrates (EC), are then applied to the surface of the covering soil as aqueous suspension or emulsion with addition of 0.5% additive at a water application rate equivalent to 600 l/ha. After the treatment, the pots are placed in a greenhouse and kept under good growth conditions for the trial plants. After about 3 weeks, the effect of the preparations is scored visually in comparison with untreated controls as percentages. For example, 100% activity=the plants have died, 0% activity=like control plants. Effects/crop compatibilities of selected compounds (Table 39) on various harmful plants at an application rate corresponding to 80 to 320 g/ha that have been obtained by the trial procedure specified hereinabove are shown in Tables 40a and 40b below.

various unwanted plants [2] = assay: Post-emergence effect against various unwanted plants (PO): comparative test of I-01 with compounds from WO2020/245044 (Tables 41a, 41b) and summary statements; assay type: in vivo; settings: comparative test
Protocol: Seeds of monocotyledonous and dicotyledonous weeds and crop plants are placed in sandy loam in plastic or organic planting pots, covered with soil and cultivated in a greenhouse under controlled growth conditions. 2 to 3 weeks after sowing, the trial plants are treated at the one-leaf stage. The compounds of the invention, formulated in the form of wettable powders (WP) or as emulsion concentrates (EC), are then sprayed onto the green parts of the plants as aqueous suspension or emulsion with addition of 0.5% additive at a water application rate of 600 l/ha (converted). After the test plants have been kept in the greenhouse under optimum growth conditions for about 3 weeks, the activity of the preparations is rated visually in comparison to untreated controls. For example, 100% activity=the plants have died, 0% activity=like control plants. […] Tables 41a and 41b below show the effects of the inventive compound (I-01) with structurally similar compounds (WO2020/245044) on various harmful plants at an application rate corresponding to 320 g/ha or less, which have been obtained by the trial procedure specified hereinafter. The inventive compound (I-01) differs here by variance of a significant structural feature from the structurally similar compound with regard to the R^2 radical. Seeds of monocotyledonous and dicotyledonous weeds and crop plants are placed in sandy loam in plastic or organic planting pots, covered with soil and cultivated in a greenhouse under controlled growth conditions. 2 to 3 weeks after sowing, the trial plants are treated at the one-leaf stage. The compounds of the invention, formulated in the form of wettable powders (WP) or as emulsion concentrates (EC), are then sprayed onto the green parts of the plants as aqueous suspension or emulsion with addition of 0.5% additive at a water application rate of 600 l/ha (converted). After the test plants have been kept in the greenhouse under optimum growth conditions for about 3 weeks, the activity of the preparations is rated visually in comparison to untreated controls. For example, 100% activity=the plants have died, 0% activity=like control plants. Effects/crop compatibilities of selected compounds (see Table 39) on various harmful plants at an application rate corresponding to 80 to 320 g/ha that have been obtained by the trial procedure specified hereinafter are shown in Tables 41a and 41b below.

ZEAMX = assay: Post-emergence herbicidal effect and crop plant compatibility, greenhouse pot test; assay type: in vivo, Zea mays; settings: Zea mays, 504 h, 20 g/ha, one-leaf stage, rated visually after about 3 weeks vs untreated controls, read-out: Post-emergence effect at 20 g/ha against ZEAMX in %
Procedure, shortened: (§1)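 Sandy loam pots, greenhouse. One-leaf stage (2–3 wk after sowing) foliar spray; WP/EC in water + 0.5% additive, 600 l/ha; 20–320 g/ha. Visual score ~3 wk, 0–100% vs untreated.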

VERPE = assay: Post-emergence herbicidal effect, greenhouse pot test; assay type: in vivo, Veronica persica; settings: Veronica persica, 504 h, read-out: Post-emergence effect against VERPE in %
Procedure, shortened: (§2)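 Greenhouse pot plants in sandy loam receive a one-leaf-stage spray at 20 to 320 g/ha. Activity is assessed visually around 3 weeks afterwards on a 0–100% scale, where 100% means the plants have died.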

POLCO = assay: as above; assay type: in vivo, Fallopia convolvulus; settings: Fallopia convolvulus, 504 h, read-out: Post-emergence effect against POLCO in %
Procedure, shortened: as §2

ECHCG = assay: as above; assay type: in vivo, Echinochloa crus-galli; settings: Echinochloa crus-galli, 504 h
Procedure, shortened: as §2

AMARE = assay: as above; assay type: in vivo, Amaranthus retroflexus; settings: Amaranthus retroflexus, 504 h, 320 g/ha, visual rating about 3 weeks after treatment, read-out: Post-emergence effect against AMARE
Procedure, shortened: as §2

VIOTR = assay: as above; assay type: in vivo, Viola tricolor; settings: Viola tricolor, 504 h, read-out: Post-emergence effect against VIOTR in %
Procedure, shortened: as §2

LOLRI = assay: as above; assay type: in vivo, Lolium rigidum; settings: Lolium rigidum, 504 h, 320 g/ha, read-out: Post-emergence effect against LOLRI in %
Procedure, shortened: as §2

PHBPU = assay: as above; assay type: in vivo, Ipomoea purpurea; settings: Ipomoea purpurea, 504 h, read-out: Post-emergence effect against PHBPU in %
Procedure, shortened: as §2

DIGSA = assay: as above; assay type: in vivo, Digitaria sanguinalis; settings: Digitaria sanguinalis, 504 h, 320 g/ha, visual rating about 3 weeks after treatment, read-out: Post-emergence effect against DIGSA
Procedure, shortened: as §2

ABUTH = assay: as above; assay type: in vivo, Abutilon theophrasti; settings: Abutilon theophrasti, 504 h, visual rating about 3 weeks after treatment, read-out: Post-emergence effect against ABUTH
Procedure, shortened: as §2

ALOMY = assay: as above; assay type: in vivo, Alopecurus myosuroides; settings: Alopecurus myosuroides, 504 h, 320 g/ha, visual rating about 3 weeks after treatment, read-out: Post-emergence effect against ALOMY
Procedure, shortened: as §2

MATIN = assay: as above; assay type: in vivo, Tripleurospermum inodorum; settings: Tripleurospermum inodorum, 504 h, read-out: Post-emergence effect against MATIN in %
Procedure, shortened: as §2

AVEFA = assay: as above; assay type: in vivo, Avena fatua; settings: Avena fatua, 504 h, 320 g/ha, visual rating about 3 weeks after treatment, read-out: Post-emergence effect against AVEFA
Procedure, shortened: as §2

TRZAS = assay: Post-emergence herbicidal effect and crop plant compatibility, greenhouse pot test; assay type: in vivo, Triticum aestivum; settings: Triticum aestivum, 504 h, 20 g/ha, one-leaf stage, rated visually after about 3 weeks vs untreated controls, read-out: Post-emergence effect at 20 g/ha against TRZAS in %
Procedure, shortened: as §1

KCHSC = assay: Post-emergence herbicidal effect, greenhouse pot test; assay type: in vivo; settings: 504 h, read-out: Post-emergence effect against KCHSC in %
Procedure, shortened: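 Greenhouse plants in sandy loam, sprayed post-emergence at the one-leaf stage (2–3 weeks after sowing) with WP or EC formulations in water plus 0.5% additive at 600 l/ha. Rates 20 to 320 g/ha. Activity rated visually after about 3 weeks against untreated controls (0% like control, 100% dead).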

SETVI = assay: as above; assay type: in vivo, Setaria viridis; settings: Setaria viridis, 504 h, read-out: Post-emergence effect against SETVI in %
Procedure, shortened: as §2

## CCOC(=O)C(F)Oc1nn(-c2ccccc2F)c(-c2ccc(F)nc2)c1Br (stereo not drawn) [C]
Various unwanted plants [1]; 320 g/ha
  Pre-emergence effect, Effect %, ALOMY: 80%
  Pre-emergence effect, Effect %, ECHCG: 70%
  Pre-emergence effect, Effect %, LOLRI: 90%
  Pre-emergence effect, Effect %, MATIN: 80%
  Pre-emergence effect, Effect %, SETVI: 70%
Various unwanted plants [1]; 80 g/ha
  Pre-emergence effect, Effect %, ECHCG: 0%
  Pre-emergence effect, Effect %, LOLRI: 10%
  Pre-emergence effect, Effect %, MATIN: 70%
  Pre-emergence effect, Effect %, POLCO: 50%
Various unwanted plants [2]; 80 g/ha
  Post-emergence effect, Effect %, ALOMY: 50%
  Post-emergence effect, Effect %, AVEFA: 60%
  Post-emergence effect, Effect %, ECHCG: 80%
  Post-emergence effect, Effect %, LOLRI: 10%
  Post-emergence effect, Effect %, SETVI: 70%

## CCOC(=O)COc1nn(-c2ccccc2F)c(-c2ccc(F)nc2)c1Br [B]
Various unwanted plants [2]; 80 g/ha
  Post-emergence effect, Effect %, ALOMY: 70%
  Post-emergence effect, Effect %, AVEFA: 80%
  Post-emergence effect, Effect %, ECHCG: 50%
  Post-emergence effect, Effect %, LOLRI: 30%
  Post-emergence effect, Effect %, SETVI: 70%

## CCCC(Oc1nn(-c2ccccc2F)c(-c2ccc(F)nc2)c1Br)C(=O)OCC (stereo not drawn) [A]
Various unwanted plants [1]; 320 g/ha
  Pre-emergence effect, Effect %, ALOMY: 60%
  Pre-emergence effect, Effect %, ECHCG: 80%
  Pre-emergence effect, Effect %, LOLRI: 30%
  Pre-emergence effect, Effect %, MATIN: 30%
  Pre-emergence effect, Effect %, SETVI: 70%
Various unwanted plants [1]; 80 g/ha
  Pre-emergence effect, Effect %, ECHCG: 0%
  Pre-emergence effect, Effect %, LOLRI: 20%
  Pre-emergence effect, Effect %, MATIN: 0%
  Pre-emergence effect, Effect %, POLCO: 20%
Various unwanted plants [2]; 80 g/ha
  Post-emergence effect, Effect %, ALOMY: 0%
  Post-emergence effect, Effect %, AVEFA: 30%
  Post-emergence effect, Effect %, ECHCG: 50%
  Post-emergence effect, Effect %, LOLRI: 0%
  Post-emergence effect, Effect %, SETVI: 20%
Various unwanted plants [2]; 320 g/ha
  Post-emergence effect, Effect %, ALOMY: 50%
  Post-emergence effect, Effect %, AVEFA: 40%
  Post-emergence effect, Effect %, ECHCG: 80%
  Post-emergence effect, Effect %, LOLRI: 20%
  Post-emergence effect, Effect %, SETVI: 70%

## COC(=O)C(OC)Oc1nn(-c2ccccc2F)c(-c2ccc(F)nc2)c1C1CC1 (stereo not drawn) [Example I-71]
ZEAMX
  plant injury at 20 g/ha: 10%
VERPE; 80 g/ha
  pest or weed control at 80 g/ha: 90%
VERPE; 320 g/ha
  pest or weed control at 320 g/ha: 90%
POLCO; 80 g/ha
  pest or weed control at 80 g/ha: 80%
POLCO; 320 g/ha
  pest or weed control at 320 g/ha: 80%
ECHCG; 20 g/ha, visual rating about 3 weeks after treatment, read-out: Post-emergence effect against ECHCG
  pest or weed control at 20 g/ha: 90%
ECHCG; 80 g/ha, read-out: Post-emergence effect against ECHCG in %
  pest or weed control at 80 g/ha: 90%
ECHCG; 320 g/ha, read-out: Post-emergence effect against ECHCG in %
  pest or weed control at 320 g/ha: 90%
AMARE
  pest or weed control at 320 g/ha: 80%
VIOTR; 20 g/ha
  pest or weed control at 20 g/ha: 90%
VIOTR; 80 g/ha
  pest or weed control at 80 g/ha: 90%
VIOTR; 320 g/ha
  pest or weed control at 320 g/ha: 90%
LOLRI
  pest or weed control at 320 g/ha: 90%
PHBPU; 20 g/ha
  pest or weed control at 20 g/ha: 80%
PHBPU; 80 g/ha
  pest or weed control at 80 g/ha: 90%
PHBPU; 320 g/ha
  pest or weed control at 320 g/ha: 90%
DIGSA
  pest or weed control at 320 g/ha: 90%
ABUTH; 80 g/ha
  pest or weed control at 80 g/ha: 90%
ABUTH; 320 g/ha
  pest or weed control at 320 g/ha: 90%
ALOMY
  pest or weed control at 320 g/ha: 90%
MATIN; 80 g/ha
  pest or weed control at 80 g/ha: 80%
MATIN; 320 g/ha
  pest or weed control at 320 g/ha: 80%
AVEFA
  pest or weed control at 320 g/ha: 90%
TRZAS
  percent crop injury (phytotoxicity) to wheat, post-emergence at 20 g/ha: 20%
KCHSC; 80 g/ha
  pest or weed control at 80 g/ha: 80%
KCHSC; 320 g/ha
  pest or weed control at 320 g/ha: 90%
SETVI; 80 g/ha
  pest or weed control at 80 g/ha: 80%
SETVI; 320 g/ha
  pest or weed control at 320 g/ha: 90%
